Data on ten compounds can be found in US9079843B2, “23-yne-vitamin D3 derivative” (TEIJIN PHARMA LIMITED, priority 2010, dated 2015).

Bounds are passed on as bounds.

For data set [1], the system named is osteoporosis model (oophorectomy) rats. As to the kind of experiment: Bone mineral density-enhancing effect in osteoporosis model (oophorectomy) rats. It counts as in vivo, rat. As to conditions: OVX rats, 5 times a week for 4 weeks, fourth and fifth lumbar vertebrae.
Experimental: (§1) After 24 hours from the final administration, blood was drawn under ether anesthesia and the rats were put down. Under anesthesia, bone mineral density of the fourth and fifth lumbar vertebrae was measured by using a dual-energy X-ray bone mineral analyzer (QDR-2000; Hologic, Inc.). For comparison, a sham surgery (sham) group (abdominal operation is performed but the ovary is not removed; the test compounds are not administered) and an oophorectomy (OVX) group (subjected to oophorectomy but the test compounds are not administered) were also subjected to measurement of the bone mineral density of lumbar vertebrae at the time of dissection. Further, measurement of calcium concentration in the serum of each group was also performed.
A short description of data set [2]: Serum calcium concentration in osteoporosis model (oophorectomy) rats. As to conditions: OVX rats; for Serum calcium value: 5 times a week for 4 weeks, 24 hours after final administration.
Experimental: as §1
Another data set deals with T1, VDR (Homo sapiens, UniProt P11473).
T1 sequence (P11473 1-427): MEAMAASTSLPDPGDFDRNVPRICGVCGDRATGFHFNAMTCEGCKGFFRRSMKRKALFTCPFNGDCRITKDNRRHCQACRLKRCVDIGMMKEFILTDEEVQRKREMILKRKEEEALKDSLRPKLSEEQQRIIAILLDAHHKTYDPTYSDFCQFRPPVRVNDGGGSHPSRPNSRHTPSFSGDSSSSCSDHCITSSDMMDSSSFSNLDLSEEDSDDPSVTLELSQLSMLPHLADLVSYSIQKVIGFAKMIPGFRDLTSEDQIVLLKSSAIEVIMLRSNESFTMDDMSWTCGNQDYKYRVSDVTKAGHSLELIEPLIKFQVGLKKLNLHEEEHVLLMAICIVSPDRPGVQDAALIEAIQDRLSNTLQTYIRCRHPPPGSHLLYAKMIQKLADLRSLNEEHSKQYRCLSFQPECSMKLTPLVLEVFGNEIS
As to the kind of experiment: Evaluation of VDR affinity (PolarScreen Vitamin D Receptor Competitor Assay, fluorescence polarization). In general terms: Polarisation of emitted light reports the rotation of a fluorescent probe.

For another data set, the target named is T2, human VDR (Homo sapiens, UniProt P11473).
T2 construct: expressed in transfected cells; host or cells: HOS cells (human osteoblast, ATCC)
T2 sequence (P11473 1-427): T1 sequence (P11473 1-427)
T2 sequence (P19793 1-462 partner): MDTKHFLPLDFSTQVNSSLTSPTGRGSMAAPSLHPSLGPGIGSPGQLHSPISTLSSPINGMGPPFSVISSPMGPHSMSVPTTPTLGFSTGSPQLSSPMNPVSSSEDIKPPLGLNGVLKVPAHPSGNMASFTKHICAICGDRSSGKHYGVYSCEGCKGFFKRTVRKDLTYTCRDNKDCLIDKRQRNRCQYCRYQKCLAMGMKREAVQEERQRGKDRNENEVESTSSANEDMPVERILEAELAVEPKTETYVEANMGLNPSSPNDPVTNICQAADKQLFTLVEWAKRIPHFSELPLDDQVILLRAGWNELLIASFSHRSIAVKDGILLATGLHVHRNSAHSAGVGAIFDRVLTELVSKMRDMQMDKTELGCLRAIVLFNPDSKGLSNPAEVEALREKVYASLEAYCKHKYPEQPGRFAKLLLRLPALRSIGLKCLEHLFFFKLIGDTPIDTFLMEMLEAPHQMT
As to the kind of experiment: VDR transcriptional activity in human osteoblast (HOS cells), osteocalcin promoter luciferase reporter. It counts as cell-based. As to conditions: 24 hours incubation. From the text:
(1) A reporter vector was constructed by inserting the sequence of the promoter region of human ostocalcin gene into the upstream of luciferase gene using a pGL3 vector (Promega Corporation), wherein the promoter region of the human ostocalcin gene was cloned using cDNA acquired from HOS cells (purchased from ATCC) by a method known in the literature (Ozono et al., The Journal of Biological Chemistry, 265, 21881-21888 (1990)). The expression vector was constructed by inserting a DNA sequence, which encodes human VDR and human RXR, into a pcDNA3 vector (Invitrogen Corporation). The HOS cells were incubated in a DMEM medium containing 10% FBS under conditions of 37° C. and 5% CO2, and subcultured every 2 or 3 days.
(2) The cells which had been subcultured were recovered by centrifugation and were suspended in serum- and phenol red-free DMEM medium in a density of 4×10^5 cells/mL. This was seeded on a 96-well plate in an amount of 0.1 mL/well. To this system, various vectors described in (1) were added in an amount of 0.05 mL per well using Lipofectamine 2000 (Invitrogen Corporation). After incubation at 37° C. for 3 hours, 2 μl each of ethanol solutions of the test compounds of various concentrations or ethanol as a control was added to each well. After incubation at 37° C. for 24 hours, the medium was removed, the cells were washed once with PBS(−), and thereafter luciferase activity was measured by using a luminometer (Berthold Technologies GmbH & Co. KG) using Dual-Glo Luciferase Assay Kit (Promega Corporation).

Turning to `C=C1/C(=C\C=C2/CCC[C@]3(C)[C@@H]([C@H](C)CCCC(C)(C)O)CC[C@@H]23)C[C@@H](O)[C@H](OCCCO)[C@@H]1O` [2α-(3-hydroxypropyl)oxy-1α,25-dihydroxyvitamin D3, reference compound], the values for the Bone mineral density in data set [1] (dose 10 ng/kg) and in data set [1] (dose 25 ng/kg) were 0.2269 ± 0.0161 g/mL and 0.2473 ± 0.0157 g/mL, respectively. The Serum calcium value in data set [2] (dose 10 ng/kg) turned out to be 10.30 ± 0.37 mg/dL; in data set [2] (dose 25 ng/kg) it was 11.20 ± 0.20 mg/dL. In addition, the “increase in the serum calcium value” in data set [2] (dose 25 ng/kg necessary for bone mineral density equal to or greater than sham group) was ≥ 1 mg/dL.

In general, EC50 refers to the concentration at which the effect is half-maximal. With `C=C1C(=CC=C2CCCC3(C)C2CCC3C(C)CC#CC(C)(C)O)CC(O)C(OCCC(=O)O)C1O` [Compound C-1, (5Z,7E)-(1R,2S,3R,20R)-2-(2-carboxyethoxy)-23-yne-9,10-seco-5,7,10(19)-cholestatriene-1,3,25-triol], the Bone mineral density was 0.2223 ± 0.0118 g/mL in data set [1] (dose 4 ng/kg) and 0.2400 ± 0.0065 g/mL in data set [1] (dose 10 ng/kg). For the same compound, at VDR, the “VDR affinity (in words)” value was “very strong VDR affinity”. The EC50 on human VDR is ≤ 0.2 nM.

Regarding `C=C1C(=CC=C2CCCC3(C)C2CCC3C(C)CC#CC(O)(CC)CC)CC(O)C(OCCC(=O)O)C1O` [Compound F-1, (5Z,7E)-(1R,2S,3R,20R)-2-(2-carboxyethoxy)-26,27-dimethyl-23-yne-9,10-seco-5,7,10(19)-cholestatriene-1,3,25-triol], in data set [1] (dose 6 ng/kg), the Bone mineral density came to 0.2366 ± 0.0139 g/mL. The EC50 on human VDR was ≤ 0.02 nM.

For the compound `C=C1C(=CC=C2CCCC3(C)C2CCC3C(C)CC#CC(C)(C)O)CC(O)C(CC(C)C(=O)OC(C)(C)C)C1O` [Compound D-6, (5Z,7E)-(1S,2S,3R,20R)-2-(2-(1,1-dimethyl)ethoxycarbonylpropyl)-23-yne-9,10-seco-5,7,10(19)-cholestatriene-1,3,25-triol], the Bone mineral density in data set [1] (dose 50 ng/kg) was determined as 0.2365 ± 0.0204 g/mL. Also, the Serum calcium value in data set [2] (dose 50 ng/kg) was 9.76 ± 0.29 mg/dL.

Turning to `C=C1/C(=C\C=C2/CCC[C@]3(C)[C@@H]([C@H](C)CC#CC(C)(C)O)CC[C@@H]23)C[C@@H](O)[C@H](OCCC(=O)OC(C)C)[C@@H]1O` [Compound C-5, (5Z,7E)-(1R,2S,3R,20R)-2-(2-(1-methyl)ethoxycarbonylethoxy)-23-yne-9,10-seco-5,7,10(19)-cholestatriene-1,3,25-triol], the Bone mineral density turned out to be 0.2316 ± 0.0134 g/mL in data set [1] (dose 17 ng/kg) and 0.2354 ± 0.0126 g/mL in data set [1] (dose 50 ng/kg). Also, the Serum calcium value in data set [2] (dose 17 ng/kg) turned out to be 9.60 ± 0.15 mg/dL; in data set [2] (dose 50 ng/kg), 10.10 ± 0.21 mg/dL.

Turning to `C=C1/C(=C\C=C2/CCC[C@@]3(C)C2CC[C@@H]3[C@H](C)CC#CC(C)(C)O)C[C@@H](O)[C@H](OCC2(C(=O)O)CC2)[C@@H]1O` (stereo partly drawn) [Compound E-1, (5Z,7E)-(1R,2S,3R,20R)-2-((2-carboxy-2,2-ethano)ethoxy)-23-yne-9,10-seco-5,7,10 (19)-cholestatriene-1,3,25-triol], on human VDR, the EC50 was ≤ 0.2 nM.

`C=C1C(=CC=C2CCCC3(C)C2CCC3C(C)CC#CC(C)(C)O)CC(O)C(CCCC(=O)O)C1O` [Compound D-1]: the Bone mineral density in data set [1] (dose 6 ng/kg) was found to be 0.2211 ± 0.0175 g/mL; in data set [1] (dose 13 ng/kg) it was 0.2360 ± 0.0143 g/mL. The “VDR affinity (in words)” value on VDR is “very strong VDR affinity”. Also, on human VDR, the EC50 is ≤ 0.02 nM.

Turning to `C=C1/C(=C\C=C2/CCC[C@]3(C)[C@@H]([C@H](C)CC#CC(C)(C)O)CC[C@@H]23)C[C@@H](O)[C@H](OCCC(=O)OCOC(=O)C(C)(C)C)[C@@H]1O` [Compound C-7, (5Z,7E)-(1R,2S,3R,20R)-2-((t-butylcarbonyloxy)methoxycarbonylethoxy)-23-yne-9,10-seco-5,7,10(19)-cholestatriene-1,3,25-triol], the Bone mineral density in data set [1] (dose 6 ng/kg) worked out at 0.2322 ± 0.0092 g/mL; in data set [1] (dose 13 ng/kg), 0.2548 ± 0.0143 g/mL. The Serum calcium value in data set [2] (dose 6 ng/kg) was found to be 9.83 ± 0.22 mg/dL; in data set [2] (dose 13 ng/kg), 10.07 ± 0.22 mg/dL.

Turning to `C=C1C(=CC=C2CCCC3(C)C2CCC3C(C)CC#CC(C)(C)O)CC(O)C(OCCC(=O)OC)C1O` [Compound C-2, (5Z,7E)-(1R,2S,3R,20R)-2-(2-methoxycarbonylethoxy)-23-yne-9,10-seco-5,7,10(19)-cholestatriene-1,3,25-triol], the values for the Bone mineral density in data set [1] (dose 6 ng/kg) and in data set [1] (dose 13 ng/kg) were 0.2196 ± 0.0177 g/mL and 0.2308 ± 0.0081 g/mL, respectively. The EC50 on human VDR is ≤ 0.2 nM.

In the case of `C=C1C(=CC=C2CCCC3(C)C2CCC3C(C)CC#CC2(O)CCCC2)CC(O)C(OCCC(=O)O)C1O` [Compound F-2, (5Z,7E)-(1R,2S,3R,20R)-2-(2-carboxyethoxy)-26,27-nor-25-cyclopentyl-23-yne-9,10-seco-5,7,10(19)-cholestatriene-1,3,25-triol], at human VDR, the EC50 was ≤ 0.02 nM.
